Measurements published in the supplement of paper PMC9663587.

What follows are cell lines tested with CCc1cnn2c(NCc3ccc[n+]([O-])c3)cc(N3CCCC[C@H]3CCO)nc12 (assay: increase in dead-cell fraction, 72 h; higher = more death). Conditions: 1 µM.
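Wherever GR value, 72 h is given: breast cancer and non-malignant breast epithelial lines, nine half-log doses, viable cells counted by Hoechst and LIVE/DEAD dye imaging versus time-zero plates and DMSO controls.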
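Wherever increase in dead-cell fraction, 72 h is given: breast cancer cell lines in 384-well plates, stained with Hoechst plus LIVE/DEAD far red dye and imaged, cells above an LDR intensity threshold counted dead, Hoechst-negative corpses included.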

Cell Line	increase in dead-cell fraction
HCC1419	0.369

Each cell line was assayed with CN(C)C(=O)c1cc2cnc(Nc3ccc(N4CCNCC4)cn3)nc2n1C1CCCC1 [LEE011/Ribociclib] in the same assay as above. Conditions: 0.001 µM.

Cell Line	increase in dead-cell fraction
HCC202	0.0107
HCC1143	-0.0077
HCC1187	-0.0158
HCC1395	-0.0137
HCC1419	-0.0016

Same assay, conditions: 0.003162 µM

Cell Line	increase in dead-cell fraction
HCC202	-0.0028
HCC1143	0.0012
HCC1187	0.0194
HCC1395	0.0153
HCC1419	0.0044

Same assay, conditions: 0.01 µM

Cell Line	increase in dead-cell fraction
HCC202	0.0035
HCC1143	0
HCC1187	0.0202
HCC1395	0.0143
HCC1419	0.0015

Same assay, conditions: 0.03162 µM

Cell Line	increase in dead-cell fraction
HCC202	0.0081
HCC1143	0.001
HCC1187	0.0086
HCC1395	0.0111
HCC1419	-0.0001

Same assay, conditions: 0.1 µM

Cell Line	increase in dead-cell fraction
HCC202	0.0043
HCC1143	0.0077
HCC1187	-0.01
HCC1395	0.0234
HCC1419	0.0168

Same assay, conditions: 0.3162 µM

Cell Line	increase in dead-cell fraction
HCC202	0.0132
HCC1143	0.0065
HCC1187	0.0057
HCC1395	0.0259
HCC1419	0.0148

Same assay, conditions: 1 µM

Cell Line	increase in dead-cell fraction
HCC202	0.0255
HCC1143	0.0007
HCC1187	0.0164
HCC1395	0.0472
HCC1419	0.0084

Same assay, conditions: 3.162 µM

Cell Line	increase in dead-cell fraction
HCC202	0.0242
HCC1143	0.009
HCC1187	0.0124
HCC1395	0.0158
HCC1419	0.0128

Same assay, conditions: 10 µM

Cell Line	increase in dead-cell fraction
HCC202	0.0292
HCC1143	0.0365
HCC1187	0.0129
HCC1395	0.0578
HCC1419	0.0195

These cell lines were tested with CN(C)C/C=C/C(=O)Nc1ccc(C(=O)N2CCC[C@@H](Nc3ncc(Cl)c(-c4c[nH]c5ccccc45)n3)C2)cc1 [THZ531] in the same assay as above. Conditions: 0.0001 µM.

Cell Line	increase in dead-cell fraction
HCC202	-0.0053
HCC1143	0.0046
HCC1187	0.0118
HCC1395	0.0083
HCC1419	-0.0026

Same assay, conditions: 0.0003162 µM

Cell Line	increase in dead-cell fraction
HCC202	0.002
HCC1143	0.0047
HCC1187	-0.0088
HCC1395	-0.0121
HCC1419	-0.0053

Same assay, conditions: 0.001 µM

Cell Line	increase in dead-cell fraction
HCC202	-0.0003
HCC1143	0.0003
HCC1187	-0.0009
HCC1395	0.0071
HCC1419	0.0001

Same assay, conditions: 0.003162 µM

Cell Line	increase in dead-cell fraction
HCC202	-0.0311
HCC1143	0.0002
HCC1187	-0.0126
HCC1395	0.0027
HCC1419	-0.0057

Same assay, conditions: 0.01 µM

Cell Line	increase in dead-cell fraction
HCC202	0.0109
HCC1143	-0.0009
HCC1187	-0.0087
HCC1395	-0.0161
HCC1419	-0.0018

Same assay, conditions: 0.03162 µM

Cell Line	increase in dead-cell fraction
HCC202	0.0036
HCC1143	0.0121
HCC1187	-0.0107
HCC1395	-0.0019
HCC1419	-0.001

Same assay, conditions: 0.1 µM

Cell Line	increase in dead-cell fraction
HCC202	0.066
HCC1143	0.0256
HCC1187	0.36
HCC1395	0.0618
HCC1419	0.0145

Same assay, conditions: 0.3162 µM

Cell Line	increase in dead-cell fraction
HCC202	0.128
HCC1143	0.117
HCC1187	0.611
HCC1395	0.113
HCC1419	0.0751

Same assay, conditions: 1 µM

Cell Line	increase in dead-cell fraction
HCC202	0.088
HCC1143	0.134
HCC1395	0.242
HCC1419	0.14

What follows are cell lines tested with T1, CN(C)C/C=C/C(=O)Nc1ccc(C(=O)Nc2cccc(Nc3ncc(Cl)c(-c4c[nH]c5ccccc45)n3)c2)cc1 [THZ1] in the same assay as above. Conditions: 0.0001 µM.

Cell Line	increase in dead-cell fraction
HCC202	0.0041
HCC1143	-0.0073
HCC1187	-0.0047
HCC1395	-0.017
HCC1419	-0.0023

Same assay, conditions: 0.0003162 µM

Cell Line	increase in dead-cell fraction
HCC202	-0.0036
HCC1143	-0.0031
HCC1187	-0.0081
HCC1395	-0.002
HCC1419	0.0069

Same assay, conditions: 0.001 µM

Cell Line	increase in dead-cell fraction
HCC202	0.0114
HCC1143	-0.0053
HCC1187	0.0016
HCC1395	-0.0182
HCC1419	0.0008

Same assay, conditions: 0.003162 µM

Cell Line	increase in dead-cell fraction
HCC202	0.0077
HCC1143	-0.0066
HCC1187	0.019
HCC1395	0.0057
HCC1419	0.001

Same assay, conditions: 0.01 µM

Cell Line	increase in dead-cell fraction
HCC202	0.0009
HCC1143	0.0051
HCC1187	0.0061
HCC1395	0.0001
HCC1419	-0.0006

Same assay, conditions: 0.03162 µM

Cell Line	increase in dead-cell fraction
HCC202	0.0391
HCC1143	0.0382
HCC1187	0.113
HCC1395	0.0489
HCC1419	-0.0062

Same assay, conditions: 0.1 µM

Cell Line	increase in dead-cell fraction
HCC202	0.0709
HCC1143	0.162
HCC1187	0.421
HCC1395	0.193
HCC1419	0.0395

Same assay, conditions: 0.3162 µM

Cell Line	increase in dead-cell fraction
HCC202	0.103
HCC1143	0.192
HCC1187	0.568
HCC1395	0.25
HCC1419	0.147

Same assay, conditions: 1 µM

Cell Line	increase in dead-cell fraction
HCC202	0.164
HCC1143	0.165
HCC1187	0.624
HCC1395	0.469
HCC1419	0.138

Each cell line was assayed with CN1CC[C@H](c2c(O)cc(O)c3c(=O)cc(-c4ccccc4Cl)oc23)[C@H](O)C1 [Flavopiridol] in the same assay as above. Conditions: 0.0001 µM.

Cell Line	increase in dead-cell fraction
HCC202	0.0217
HCC1143	-0.0098
HCC1187	-0.0206
HCC1395	-0.0165
HCC1419	-0.0053

Same assay, conditions: 0.0003162 µM

Cell Line	increase in dead-cell fraction
HCC202	-0.005
HCC1143	-0.0008
HCC1187	0.0043
HCC1395	0.0036
HCC1419	-0.0069

Same assay, conditions: 0.001 µM

Cell Line	increase in dead-cell fraction
HCC202	0.0178
HCC1143	-0.0018
HCC1187	0.0532
HCC1395	-0.001
HCC1419	-0.006

Same assay, conditions: 0.003162 µM

Cell Line	increase in dead-cell fraction
HCC202	-0.0039
HCC1143	0.0048
HCC1187	-0.0091
HCC1395	0.0024
HCC1419	-0.0084

Same assay, conditions: 0.01 µM

Cell Line	increase in dead-cell fraction
HCC202	-0.0121
HCC1143	0.0022
HCC1187	0.0053
HCC1395	0.0179
HCC1419	-0.0002

Same assay, conditions: 0.03162 µM

Cell Line	increase in dead-cell fraction
HCC202	0.0154
HCC1143	-0.0053
HCC1187	-0.0105
HCC1395	-0.0053
HCC1419	0.0077

Same assay, conditions: 0.1 µM

Cell Line	increase in dead-cell fraction
HCC202	0.0477
HCC1143	0.0185
HCC1187	0.0075
HCC1395	-0.0066
HCC1419	0.0061

Same assay, conditions: 0.3162 µM

Cell Line	increase in dead-cell fraction
HCC202	0.115
HCC1143	0.0656
HCC1187	0.15
HCC1395	0.0777
HCC1419	0.0159

Same assay, conditions: 1 µM

Cell Line	increase in dead-cell fraction
HCC202	0.133
HCC1143	0.228
HCC1187	0.612
HCC1395	0.306
HCC1419	0.162

What follows are cell lines tested with CCOc1cc2ncc(C#N)c(Nc3ccc(OCc4ccccn4)c(Cl)c3)c2cc1NC(=O)/C=C/CN(C)C [Neratinib/HKI272] (assay: GR value, 72 h; higher = faster growth (1 = untreated, <0 = killing)). Conditions: 0.0003162 µM.

Cell Line	GR value
HCC202	1.05 GR
HCC1143	0.964 GR
HCC1187	0.994 GR
HCC1395	1.05 GR
HCC1419	0.769 GR

Same assay, conditions: 0.001 µM

Cell Line	GR value
HCC202	0.953 GR
HCC1143	0.951 GR
HCC1187	0.99 GR
HCC1395	1.07 GR
HCC1419	0.611 GR

Same assay, conditions: 0.003162 µM

Cell Line	GR value
HCC202	0.901 GR
HCC1143	0.941 GR
HCC1187	0.792 GR
HCC1395	1.14 GR
HCC1419	0.148 GR

Same assay, conditions: 0.01 µM

Cell Line	GR value
HCC202	0.709 GR
HCC1143	0.864 GR
HCC1187	1.07 GR
HCC1395	1 GR
HCC1419	0.0675 GR

Same assay, conditions: 0.03162 µM

Cell Line	GR value
HCC202	0.491 GR
HCC1143	0.876 GR
HCC1187	0.979 GR
HCC1395	1.06 GR
HCC1419	-0.097 GR

Same assay, conditions: 0.1 µM

Cell Line	GR value
HCC202	0.325 GR
HCC1143	0.761 GR
HCC1187	0.78 GR
HCC1395	0.916 GR
HCC1419	-0.159 GR

Same assay, conditions: 0.3162 µM

Cell Line	GR value
HCC202	0.214 GR
HCC1143	0.654 GR
HCC1187	0.869 GR
HCC1395	0.741 GR
HCC1419	-0.26 GR

Same assay, conditions: 1 µM

Cell Line	GR value
HCC202	0.194 GR
HCC1143	0.458 GR
HCC1187	0.653 GR
HCC1395	0.521 GR
HCC1419	-0.404 GR

Same assay, conditions: 3.162 µM

Cell Line	GR value
HCC202	0.0934 GR
HCC1143	0.0904 GR
HCC1187	0.484 GR
HCC1395	0.0073 GR
HCC1419	-0.494 GR

Each cell line was assayed with T1, THZ1 in the same assay as above. Conditions: 0.0001 µM.

Cell Line	GR value
HCC202	0.915 GR
HCC1143	0.953 GR
HCC1187	0.932 GR
HCC1395	1 GR
HCC1419	0.981 GR

Same assay, conditions: 0.0003162 µM

Cell Line	GR value
HCC202	1.02 GR
HCC1143	1.04 GR
HCC1187	1.51 GR
HCC1395	1.01 GR
HCC1419	0.953 GR

Same assay, conditions: 0.001 µM

Cell Line	GR value
HCC202	0.961 GR
HCC1143	1 GR
HCC1187	0.963 GR
HCC1395	0.982 GR
HCC1419	1.04 GR

Same assay, conditions: 0.003162 µM

Cell Line	GR value
HCC202	0.866 GR
HCC1143	0.989 GR
HCC1187	0.885 GR
HCC1395	0.985 GR
HCC1419	1.03 GR

Same assay, conditions: 0.01 µM

Cell Line	GR value
HCC202	0.8 GR
HCC1143	0.908 GR
HCC1187	0.645 GR
HCC1395	1.04 GR
HCC1419	1.01 GR

Same assay, conditions: 0.03162 µM

Cell Line	GR value
HCC202	0.397 GR
HCC1143	0.303 GR
HCC1187	0.0807 GR
HCC1395	0.241 GR
HCC1419	0.765 GR

Same assay, conditions: 0.1 µM

Cell Line	GR value
HCC202	0.154 GR
HCC1143	-0.271 GR
HCC1187	-0.731 GR
HCC1395	-0.42 GR
HCC1419	0.228 GR

Same assay, conditions: 0.3162 µM

Cell Line	GR value
HCC202	0.0808 GR
HCC1143	-0.266 GR
HCC1187	-0.852 GR
HCC1395	-0.546 GR
HCC1419	-0.215 GR

Same assay, conditions: 1 µM

Cell Line	GR value
HCC202	0.0457 GR
HCC1143	-0.31 GR
HCC1187	-0.8 GR
HCC1395	-0.795 GR
HCC1419	-0.386 GR
